# Tests used:
# [1] = Ferrous ions (Fe2+) chelating activity (ferrozine); conditions: 0.1 mg/mL, 10 min, room temperature
# Experimental: Ferrous ions (Fe^2+) chelating activity was evaluated by inhibition of the formation of Fe^2+-ferrozine complex after incubation of the compounds tested with Fe^2+. The Fe^2+-chelating ability of compounds tested was determined by the absorbance of the ferrous ion-ferrozine complex at 562 nm. In brief, 0.1 mg/mL concentration of the compounds tested in 0.2 mL ethyl alcohol were added to a solution of 0.6 mM FeCl2 (0.05 mL). EDTA (ethylenediaminetetraacetic acid) was used as the standard EDTA chelating agent. The reaction was started by the addition of 5 mM ferrozine (0.05 mL) in ethyl alcohol and shaken vigorously immediately. The samples were stored for 10 min at room temperature (~22 °C). Following incubation, the absorbance (Abs) of the solutions was measured at 562 nm in a spectrophotometer. The percentage of inhibition of ferrozine—Fe^2+ complex formation was calculated using the equation: Fe^2+ chelating effect (%) = [1 − (Abs1/Abs0)] × 100% where Abs0 is the absorbance of the sample without the tested compound and Abs1 is the absorbance in the presence of the compound tested. Each sample was made in triplicate, and three independent experiments were performed.
# Coriolus versicolor (Cv) = assay: Antifungal agar-plate method; type: cell-based; conditions: Trametes versicolor, read-out: Antifungal activity (inhibition of mycelial growth); for inhibition of growth at 0.0001 %: concentration 0.0001%; for inhibition of growth at 0.001 %: concentration 0.001%; for inhibition of growth at 0.01 %: concentration 0.01%; for inhibition of growth at 0.1 %: concentration 0.1%
# Experimental: (§1) Fungal strains: Coriolus versicolor (Cv), Poria placenta (Pp), Coniophora puteana (Cp) and Gloeophyllum trabeum (Gt) were used as a test organism for the experimental determination of the antifungal activity of 1–11. The fungus were obtained from the collection of the Department of Wood Chemical Technology, Faculty of Forestry and Wood Technology, Poznań, University of Life Sciences, Poland. The fungal growth rates were measured in 90 mm-diameter plastic dishes using the agar-plate method, described by Ważny and Thorton. Five concentrations of gramine and its derivatives in the range of 0.1% to 0.00001% were studied. The compound was applied on the agar (2% agar and 5% malt-extract) prepared on the Petri dish and previously autoclaved. The combination of the compound and fungus was repeated three times. Given sample was centrally inoculated with a 5 mm diameter disc taken from the submargin of 5-day-old malt agar plates. The plates were incubated in darkness at 21 ± 2 °C and 70 ± 5% relative air humidity. The growth duration was determined by the total coverage of the reference plate. The radius of the area covered by the fungus compared with the reference agar plate was employed to calculate the effective doses, ED50, of preservative concentrations retarding the fungal growth rate by 50%.
# Coniophora puteana (Cp) = assay: Antifungal agar-plate method; type: cell-based; conditions: Coniophora puteana, read-out: Antifungal activity (inhibition of mycelial growth); for inhibition of growth at 0.0001 %: concentration 0.0001%; for inhibition of growth at 0.001 %: concentration 0.001%; for inhibition of growth at 0.01 %: concentration 0.01%; for inhibition of growth at 0.1 %: concentration 0.1%
# Experimental: as §1
# [2] = system: Gloeophyllum trabeum (Gt); assay: Antifungal agar-plate method; type: cell-based; conditions: Gloeophyllum trabeum, read-out: Antifungal activity (inhibition of mycelial growth); for inhibition of growth at 0.0001 %: concentration 0.0001%; for inhibition of growth at 0.001 %: concentration 0.001%; for inhibition of growth at 0.01 %: concentration 0.01%; for inhibition of growth at 0.1 %: concentration 0.1%
# Experimental: as §1
# Poria placenta (Pp) = assay: Antifungal agar-plate method; type: cell-based; conditions: read-out: Antifungal activity (inhibition of mycelial growth); for inhibition of growth at 0.0001 %: concentration 0.0001%; for inhibition of growth at 0.001 %: concentration 0.001%; for inhibition of growth at 0.01 %: concentration 0.01%; for inhibition of growth at 0.1 %: concentration 0.1%
# Experimental: as §1
# Escherichia coli = assay: Antibacterial well-diffusion method; type: cell-based; conditions: 0.1 mL of compound in DMSO, 48 h, 37 °C
# Experimental: (§2) The antimicrobial properties of compounds were determined against selected bacteria: Micrococcus luteus, Bacillus subtilis, Escherichia coli and Pseudomonas fluorescens which came from the collection of Pure Cultures of the Facility of Microbiology of the Department of Soil Science and Microbiology of the Poznan University of Life Sciences. The well-diffusion method was used to evaluate the antimicrobial properties of compounds. 6 mL each of liquidized broth medium was poured into sterile Petri dishes and allowed to solidify. After which, two sterile glass rings with a diameter of 0.5 cm were placed on the surface of each plate. Then 20 mL each of liquid broth medium containing suspensions of the tested bacterial strains at a density of 10^7 cells/cm3, obtained from 48-h cultures on broth […], was introduced. After the medium solidified, the glass rings were removed with a pencil, obtaining two wells on each plate. 0.1 mL of compound dissolved in pure dimethyl sulphoxide was introduced into one well, and 0.1 mL of pure dimethyl sulphoxide was introduced into the other well, which was as a control. Each compound was tested in four replicates. The plates were incubated for 48 h in a thermostat at 27 °C for M. luteus, B. subtilis and P. fluorescens cultures, and the E. coli culture at 37 °C. At the end of the incubation, the diameters of growth inhibition of the tested strains were measured using calipers.
# Micrococcus luteus = assay: Antibacterial well-diffusion method; type: cell-based; conditions: Micrococus luteus, 0.1 mL of compound in DMSO, 48 h, 27 °C
# Experimental: as §2
# Bacillus subtilis = assay: Antibacterial well-diffusion method; type: cell-based; conditions: 0.1 mL of compound in DMSO, 48 h, 27 °C
# Experimental: as §2
# Pseudomonas fluorescens = assay: Antibacterial well-diffusion method; type: cell-based; conditions: 0.1 mL of compound in DMSO, 48 h, 27 °C
# Experimental: as §2
melting point,SMILES,Chelating activity [1],inhibition of growth at 0.0001 % (Coriolus versicolor (Cv)),inhibition of growth at 0.001 % (Coriolus versicolor (Cv)),inhibition of growth at 0.01 % (Coriolus versicolor (Cv)),inhibition of growth at 0.1 % (Coriolus versicolor (Cv)),inhibition of growth at 0.0001 % (Coniophora puteana (Cp)),inhibition of growth at 0.001 % (Coniophora puteana (Cp)),inhibition of growth at 0.01 % (Coniophora puteana (Cp)),inhibition of growth at 0.1 % (Coniophora puteana (Cp)),inhibition of growth at 0.0001 % [2],inhibition of growth at 0.001 % [2],inhibition of growth at 0.01 % [2],inhibition of growth at 0.1 % [2],inhibition of growth at 0.0001 % (Poria placenta (Pp)),inhibition of growth at 0.001 % (Poria placenta (Pp)),inhibition of growth at 0.01 % (Poria placenta (Pp)),inhibition of growth at 0.1 % (Poria placenta (Pp)),Zone of Growth Inhibition (Escherichia coli),Zone of Growth Inhibition (Micrococcus luteus),also measured
187 to 190 °C,"S=c1sc2ccccc2n1Cc1c[nH]c2ccccc12 [Compound 10, 3-((1H-indol-3-yl)methyl)benzo[d]thiazole-2(3H)-thione]",12%,0%,20%,49%,100%,0%,40%,57%,100%,0%,38%,59%,100%,34%,54%,71%,100%,1 mm,2.6 mm,Zone of Growth Inhibition (Bacillus subtilis): 0 mm; Zone of Growth Inhibition (Pseudomonas fluorescens): 0 mm
157 to 159 °C,"S=c1oc2ccccc2n1Cc1c[nH]c2ccccc12 [Compound 11, 3-((1H-indol-3-yl)methyl)benzo[d]oxazole-2(3H)-thione]",29%,0%,2%,26%,100%,0%,43%,44%,100%,17%,39%,47%,100%,0%,56%,64%,100%,2.7 mm,4 mm,Zone of Growth Inhibition (Bacillus subtilis): 0 mm; Zone of Growth Inhibition (Pseudomonas fluorescens): 0 mm
